From US8778882B2, “Agent for strengthening calcium containing tissue and use thereof” (Hayashibara Co., Ltd., priority 2002, dated 2014) come the findings set out here.

Assay [1] has as its system mouse pre-osteoblastic cell MC3T3-E1. In words: Calcium deposition amount by Calcium C Test Wako. Type of assay: cell-based. An excerpt: Other flavonoid compounds than kaempferol or hesperetin were investigated where they have the same effect or not. Flavone (commercialized by Kanto Kagaku, Tokyo, Japan), apigenin (commercialized by Funakoshi, Co., Ltd., Tokyo, Japan), flavonol (commercialized by Tokyo Kasei Kogyo, Co., Ltd., Tokyo, Japan), quercetin (commercialized by Kanto Kagaku, Tokyo, Japan), kaempferol (commercialized by Funakoshi, Co., Ltd., Tokyo, Japan), rutin (commercialized by Kanto Kagaku, Tokyo, Japan), flavanone (commercialized by Kanto Kagaku, Tokyo, Japan), naringenin (commercialized by Ardrich Corporation), hesperetin (commercialized by Funakoshi, Co., Ltd., Tokyo, Japan), hesperidin (commercialized by Kanto Kagaku, Tokyo, Japan), chalcone (commercialized by Merk Corporation), fuloretin (commercialized by Sigma Corporation), catechin (commercialized by Sigma Corporation), ipriflavone (commercialized by Daito Corporation, Toyama, Japan), taxifolin (commercialized by Funakoshi, Co., Ltd., Tokyo, Japan), sulfuretin (commercialized by Funakoshi, Co., Ltd.; Tokyo, Japan), or cyanidin (commercialized by Funakoshi, Co., Ltd., Tokyo, Japan) was selected as test samples. Alkaline phosphatase activity was measured by the method of Experiment 1. Calcium deposition was measured by usual method using “Calcium C Test Wako” (commercialized by Wako Pure Chemical Industries, Osaka, Japan), briefly, cultured cells were washed with 1 ml of Dulbecco phosphate buffer saline three times after removing the medium. To the resultant was added 0.5 ml of 2N hydrochloric acid to resolve deposited calcium. To 5 μl of the resultant solution were added 0.5 ml of 0.88M monoethanolamine buffer (pH11) and 0.05 ml of 0.63 mM o-cresolphthalein complexone solution (binding to calcium ion to form chelate complex) containing 69 mM 8-quinolinol and mixed. Calcium amount per one hole of the plate was calculated by measuring absorbance 570 nm of the resultants and standardizing with a standard calcium solution. The judgement of alkaline phosphatase activity or calcium deposition amount of each sample was to calculate the relative activity or the relative calcium deposition amount to the negative control (only medium containing 0.2% (v/v) ethanol) and to compare each other.
The enhancement of calcium deposition between kaempferol and ipripfavone were compared. Test samples and their adding manner were same as Experiment 4. Calcium deposition amount was measured by usual method using “Calcium C Test Wako” (commercialized by Wako Pure Chemical Industries, Osaka, Japan); briefly, cultured cells were washed with 1 ml of Dulbecco phosphate buffer saline three times after removing the medium. To the resultant was added 0.5 ml of 2N hydrochloric acid to resolve deposited calcium. To 5 μl of the resolving solution were added 0.5 ml of 0.88M monoethanolamine buffer (pH11) and 0.05 ml of 0.63 mM o-cresolphthalein complexone solution (binding to calcium ion to form chelate complex) containing 69 mM 8-quinolinol and mixed, Calcium amount per one hole of the plate was calculated by measuring absorbance 570 nm of the resultants and standardizing with a standard calcium solution.
Kaempferol or hesperetin in combination with ipriflavone, or a kind of isoflavones, was investigated whether to enhance calcium deposition or not. Methods for preparing samples and culturing the cells were the same method described in Experiment 1 except culturing the cells for five days, Method for measuring calcium was the same method described in Experiment 3 and 5. Final ethanol concentration of the medium containing each sample was adjusted as same concentration.

A further assay relates to Mouse MC3T3-E1 cells. Kind of assay: Calcium deposition by alizarin red-S staining. In kind it is cell-based. Set-up: key: +: same strength of red color as a negative control (only medium containing 0.2% (v/v) ethanol); ++: half strength of the positive control; +++: same strength of red color as a positive control (indomethacin). To be noted: MC3T3-E1, 20 mM each compound (so in the source), eight days, alizarin red-S red color judgement. From the text: Following Experiment 1 which investigates differentiating pre-osteoblastic cells into osteoblastic cells, some of organic compounds were investigated whether they actually enhance calcium deposition or not. Indomethacin (commercialized by Funakoshi, Co., Ltd., Tokyo, Japan) (positive control), kaempferol (commercialized by Funakoshi, Co., Ltd., Tokyo, Japan), hesperetin (commercialized by Funakoshi, Co., Ltd., Tokyo, Japan), gallic acid (commercialized by Nacalai Tesque, Kyoto, Japan), and coffeic acid (commercialized by Wako Pure Chemical Industries, Osaka, Japan) were selected as organic compounds. Mouse MC3T3-E1 cells were treated with 20 mM each above compound dissolved in 1 ml of α-MEM medium supplemented with 10% (v/v) fetal calf serum and containing 10 mM β-glycerophosphate. Since final ethanol concentration in the medium is 0.2% (v/v), α-MEM medium containing 0.2% (v/v) ethanol was prepared as a negative control. The cells were inoculated for eight days as changing the medium therewith to fresh medium with or without each sample per three days. The cells were applied to measure calcium deposition therein by usual alizarin red-S staining method. Briefly to the cells washed with 1 ml of Dulbecco phosphate buffer saline twice after removing the medium were added 1 ml of 50 (v/v) % ethanol aqueous solution and incubated for 10 minutes. After removing the 50 (v/v) % ethanol aqueous solution, the cells were incubated with 1 ml of distilled water for 10 minutes. After removing the water, the cells were applied with 1 ml of 1% (w/v) alizarin red-S solution, incubated for 10 minutes, and washed with 1 ml of distilled water for three times after removing alizarin red-S solution. Then, the calcium deposition amount was measured in a manner of judging red color on the plate bottom since deposited calcium was stained by the above treatment. The judgement criterion “+” means same strength of red color as a negative control (only medium containing 0.2% (v/v) ethanol), “+++” means same strength of red color as a positive control (indomethacin), and “++” means half strength of the positive control.

Assay [2] has as its system mouse pre-osteoblastic cell MC3T3-E1. In words: Alkaline phosphatase activity in mouse pre-osteoblastic cells. Type of assay: cell-based. The following applies: for activity at 20 µM: Mus musculus. Here is the method: To increase number of osteoblastic cells having calcium-deposition activity is important for increasing bone mass. […] The activity is at low level in pre-osteoblastic cells and at high level in osteoblastic cells differentiated form the pre-osteoblastic cells. […] Since final ethanol concentration in the medium is 0.2% (v/v), α-MEM medium containing 0.2% (v/v) ethanol was prepared as a negative control. The cells were inoculated for eight days as changing the medium therewith to fresh medium with or without each sample per three days. Alkaline phosphatase activity was measured using “Alkaline Phospha B-Test Wako” (commercialized by Wako Pure Chemical Industries, Osaka, Japan) according with Kajii et al (Archives of Oral Biology, Vol. 44, pp. 233-241, (1999)). Briefly, to the above described mouse pre-osteoblastic cells washed with 1 ml of 0.25 M sucrose solution three times after removing the medium were added 0.45 ml of 50 mM carbonate salt buffer (pH9.8) containing 1 mM magnesium chloride and 50 mM sucrose and 0.05 ml of 3.4 mM disodium p-nitrophenyl phosphate in due course. The mixture was incubated at 25° C. for five minutes and admixed with 1.5 ml of 0.6N sodium hydroxide as a reaction terminator. Absorbance 405 nm of p-nitrophenol generated by alkaline phosphatase in the resulting mixture was measured, and the obtained values were used as values as alkaline phosphatase activity. […] The experiment was performed by the method according to Experiment 1 except that culture day in the medium containing each sample was three, six or nine, and concentration of each sample was 5, 10 or 20 μM. […] As a negative control, mediums containing ethanol in the above concentration were prepared for calculating relative activity to the activity of each control.

The subject of a further assay is Rat Femur and Tibia. Kind of assay: Enhancing calcium deposition in rat femur and tibia. The following applies: for Calcium Content Per One Dried Bone / Dried Bone Mass: rats fed sample in high sucrose feeding stuff for eight weeks. Type of assay: in vivo. As for the experimental part:
The experiment was performed using six three-weeks-aged female Wister rats per one group. The rats were fed with high sucrose feeding stuff containing ingredients listed Table 11 (In the Table, each value means “weight %”.) and one part by weight of each test sample; hesperetin (commercialized by Funakoshi, Co., Ltd., Tokyo, Japan), quercetin (commercialized by Tokyo Kasei Kogyo, Co., Ltd., Tokyo, Japan), α-glycosyl hesperidin (product name “αG HESPERIDINE”, commercialized by Hayashibara Shoji Inc., Okayama, Japan), α-glycosyl rutin (product name “αG RUTIN P”, commercialized by Hayashibara Shoji Inc., Okayama, Japan), or ipriflavone (commercialized by Daito Corporation, Toyama, Japan) (positive control). As a negative control, rats fed with feedstuff containing one part by weight of sucrose replacing test sample were prepared. The rats were allowed to freely take water. The rats were killed after eight weeks, and then, their femurs and tibias were excised. Each femur or tibia dried at 100° C. for about six hours was measured by electric even balance for high precision analysis (product name “HA180M/12QM”, commercialized by A & D Co, Ltd., Tokyo, Japan), and then, each bone was placed into a crucible and burned in an incinerator at 950° C. for six hours. The cinerary resultant was resolved in hydrochloric solution and provided for measuring calcium amount by atomic absorption photometer. Calcium amount per one dried bone was calculated and compared each other.

Where [3] appears, read: 192 h, MC3T3-E1, 20 mM each compound (so in the source), eight days, relative to 0.2% (v/v) ethanol negative control.

Regarding `O=c1c(O)c(-c2ccc(O)cc2)oc2cc(O)cc(O)c12` [Kaempferol], the activity at 20 µM in assay [1] (Mus musculus, MC3T3-E1, flavonoid comparison, Calcium C Test Wako, relative to 0.2% (v/v) ethanol negative control) amounted to 305%; in assay [2] (setting [3]) it was 162%; in assay [2] (MC3T3-E1, flavonoid comparison, method of Experiment 1, relative to 0.2% (v/v) ethanol negative control), 162%. The “Calcium Deposition Amount” value in the assay with Mouse MC3T3-E1 cells is given as “+++”.

For the molecule `O=C(O)c1cc(O)c(O)c(O)c1` [Gallic Acid, gallic acid], the “Calcium Deposition Amount” value with Mouse MC3T3-E1 cells is “+”. Further, the activity at 20 µM in assay [2] (setting [3]) is 79%.

For the molecule `O=C(O)/C=C/c1ccc(O)c(O)c1` [Coffeic Acid, coffeic acid], the “Calcium Deposition Amount” value with Mouse MC3T3-E1 cells was “+”. Further, the “Relative Alkaline Phosphatase Activity (%)” value in assay [2] (MC3T3-E1, 20 mM each compound (so in the source), eight days, relative to 0.2% (v/v) ethanol negative control) was 97%.

With α-glycosyl hesperidin, in the assay on Rat Femur and Tibia (Femur), the “Calcium Content Per One Dried Bone” value is listed as 126.9 mg and the “Dried Bone Mass” value worked out at 0.454 g. In the assay on Rat Femur and Tibia (Tibia), the “Calcium Content Per One Dried Bone” value is 109.5 mg and the “Dried Bone Mass” value worked out at 0.349 g. The “calcium deposition in femur and tibia” value in the assay with Rat Femur and Tibia (rats, eight weeks feeding) is listed as “increase of calcium deposition content”. Besides, the “calcium deposition in vitro” value in assay [1] (glycosides, in vitro) was “did not demonstrate”. Also, the “alkaline phosphatase activity in vitro” value in assay [2] (glycosides, in vitro) is “did not demonstrate”.

With `COc1ccc2c(c1)c(CC(=O)O)c(C)n2C(=O)c1ccc(Cl)cc1` [Indomethacin, indomethacin, reference compound], the “Calcium Deposition Amount” value in the assay with Mouse MC3T3-E1 cells was “+++”. In assay [2] (setting [3]), the activity at 20 µM is 142%.
